The nature of data set [1]: Acute toxicity, oral LD50 in the mouse. The conditions noted are these: in vivo, read-out: DL50 (mg/kg) p.o. On the procedure:
Leur toxicité aigüe est faible : la dose léthale à 50 % (LD50) déterminée chez la souris est supérieure à 1000 mg/kg par la voie orale pour la plupart d'entre eux.
(§1) Le tableau suivant donne les toxicités et les diminutions maximales d'ulcères obtenues aux doses indiquées, pour quelques composés de l'invention.

Data set [2] has as its system ulcère d'estomac induit par la phénylbutazone. Nature of the data set: Phenylbutazone-induced stomach ulcer in the rat. In kind it is in vivo. Conditions: po, maximal decrease of ulcers, 30 min before phenylbutazone 200 mg/kg p.o., female Wistar rats, scored 2 h later, read-out: Diminution ulcération (%); for inhibition in vivo at 30 mg/kg: dose 30 mg/kg p.o.; for inhibition in vivo at 100 mg/kg: dose 100 mg/kg p.o. On the procedure: Les composés de l'invention ont été testés quant à leur effet sur l'ulcère d'estomac induit par la phénylbutazone chez le rat.
Le test est effectué sur des rats Wistar femelles pesant 180-210 g à jeun depuis 20 heures, répartis en blocs randomisés.
Les ulcères sont provoqués par l'administration orale de phénylbutazone en solution mole à mole avec de la soude, à la dose de 200 mg/kg.
Les composés à étudier sont administrés par voie orale à raison de 10, 30 ou 100 mg/kg, 30 minutes avant l'ingestion de phénylbutazone, les animaux témoins ne recevant que le placébo.
Deux heures après l'administration de l'agent ulcérigène, les animaux sont sacrifiés par inhalation de chloroforme. Les estomacs sont prélevés et le degré d'ulcération est noté en aveugle de 0 à 3.
as §1

For `O=C(CN1CCC(O)CC1)NCCN=C(c1ccc(Cl)c(Cl)c1)c1cc(Cl)ccc1O` [compound 5], the LD50 in data set [1] was more than 1000 mg/kg. Further, the inhibition in vivo at 30 mg/kg in data set [2] was 92%.

`Cc1cc(Cl)cc(C(=NCCNC(=O)CN2CCC(O)CC2)c2ccc(Cl)cc2)c1O` [compound 3]: the LD50 in data set [1] was more than 1000 mg/kg. Further, in data set [2], the inhibition in vivo at 30 mg/kg stood at 94%. `Cc1ccc(C(=NCCNC(=O)CN2CCC(O)CC2)c2cc(Cl)ccc2O)cc1` [compound 4]: the LD50 in data set [1] is more than 1000 mg/kg. Moreover, the inhibition in vivo at 100 mg/kg in data set [2] is 96%. As to `O=C(CN1CCC(O)CC1)NCCNC(c1cc(Cl)ccc1O)c1ccccc1Cl` (stereo not shown) [compound 26], the LD50 in data set [1] was more than 1000 mg/kg. Besides, the inhibition in vivo at 30 mg/kg in data set [2] was 97%. For `O=C(CN1CCNCC1)NCCN=C(c1cc(Cl)ccc1O)c1ccccc1Cl` [compound 23], the inhibition in vivo at 10 mg/kg in data set [2] (dose 10 mg/kg p.o.) came to 87%. In the case of `Cc1ccccc1N1CCN(CC(=O)NCCN=C(c2cc(Cl)ccc2O)c2ccccc2Cl)CC1` [compound 19], in data set [1], the LD50 was more than 1000 mg/kg. For the same molecule, in data set [2], the inhibition in vivo at 100 mg/kg is 71%. On to `O=C(CN1CCC(O)CC1)NCCN=C(c1cc(Cl)ccc1O)c1ccc(Cl)cc1Cl` [compound 8], for which the LD50 in data set [1] is more than 1000 mg/kg. Besides, the inhibition in vivo at 100 mg/kg in data set [2] was found to be 98%. Turning to `Cc1ccc(O)c(C(=NCCNC(=O)CN2CCC(O)CC2)c2ccccc2Cl)c1` [Composé n° 7, N-[[[(méthyl-5 hydroxy-2 phényl)(chloro-2 phényl)méthylène]amino]-2 éthyl] (hydroxy-4 pipéridinyl-1)-2 acétamide], the LD50 in data set [1] is more than 1000 mg/kg. Moreover, in data set [2], the inhibition in vivo at 30 mg/kg was determined as 95%.

For the molecule `O=C(CN1CCC(O)CC1)NCCN=C(c1ccccc1)c1cc(Cl)ccc1O` [Composé n° 2], in data set [1], the LD50 was more than 1000 mg/kg. Moreover, in data set [2], the inhibition in vivo at 100 mg/kg is 100%. As to `O=C(CN1CCC(O)CC1)NCCN=C(c1ccccc1Cl)c1cc(Cl)cc(Cl)c1O` [compound 6], the LD50 in data set [1] was more than 1000 mg/kg. Besides, the inhibition in vivo at 30 mg/kg in data set [2] worked out at 100%.

As to `O=C(CN1CCN(c2ccc(Cl)cc2)CC1)NCCNC(c1cc(Cl)ccc1O)c1ccccc1Cl` (stereo not shown) [compound 29], the LD50 in data set [1] was more than 1000 mg/kg. Further, the inhibition in vivo at 30 mg/kg in data set [2] was found to be 98%. On the same counts, the results for `O=C(CN1CCC(O)CC1)NCCN=C(c1cc(Cl)ccc1O)c1ccccc1Cl` [Composé n° 1, N-[[[(chloro-5 hydroxy-2 phényl)(chloro-2 phényl)méthylène]amino]-2 éthyl] (hydroxy-4 pipéridinyl-1)-2 acétamide] are more than 1000 mg/kg and 100%. As to `Cc1ccccc1N1CCN(CC(=O)NCCNC(c2cc(Cl)ccc2O)c2ccccc2Cl)CC1` (stereo not shown) [compound 27], the LD50 in data set [1] was more than 1000 mg/kg. Also, in data set [2], the inhibition in vivo at 30 mg/kg amounted to 98%.

The record behind these values is EP0239461A1, “N-¬¬(hydroxy-2-phenyl)(phenyl)methylene amino-2 ethyl acetamide derivatives, process for their preparation and their therapeutical use” (SYNTHELABO, priority 1986, dated 1987).
